Where a name gives a salt, the structure may show the parent alone.
Experiments:
[1] = tested on: guinea-pig trachea muscle; assay: guinea-pig trachea contraction; conditions: muscles have essentially M2 receptors
[2] = tested on: M1 receptors on the intramural inhibitory neurons; assay: lower esophageal sphincter pressure assay in anaesthetized opossum; assay type: in vivo
Method: The compound (I) obtained according to Example 2 was tested by assay on the lower esophageal sphincter of an opossum anaesthetized with sodium phenobarbitol. In carrying out the assay, the lower esophageal sphincter located between the esophagus and the stomach remains in a state of tonic contraction; therefore, a pressure sensing (manometric) catheter introduced from the animal's mouth into the lumen monitors lower esophageal sphincter pressures by registering a sustained high pressure zone, due to the lumen's myogenic contraction which is independent of neural or hormonal influences. Neural activity and hormones can increase or decrease the sphincter pressure and both excitatory and inhibitory influences can be readily detected.
The intraluminal pressures from the lower esophageal sphincter, esophageal body and the stomach are continuously monitored using a low compliance, waterfilled and continuously perfused catheter anchored in the lower esophageal sphincter so that artifacts due to axial motion can be minimized. See Goyal et al., Gastroenterology, 71, 62-7 (1976). All animals receive bilateral cervical vagotomy to eliminate vagally mediated changes in the sphincter pressure. Nerves to the sphincter are stimulated electrically by electrodes which are either applied to the distal end of the cut vagus nerve or applied intramurally in the sphincter. See Goyal et al., supra, and Rattan et al., Am. J. Physiol., 234, E272-E276 (1978). Reflex relaxation of the sphincter is produced by distension of the esophagus with an intraluminal balloon. Drugs are administered in the arterial supply of the lower esophageal sphincter. This is done by opening the abdominal cavity and cannulating the artery that leads to the lower esophageal sphincter. The compound is injected into the blood supply of the lower esophageal sphincter and its effect therein is determined. The animal's vital signs are monitored and blood pressure is maintained with intravenous infusion of saline. Some drugs are administered intravenously.
In summary, the above-described model permits identification of muscarinic agonists and antagonists in a physiological system.

[3] = lower esophageal sphincter, anaesthetized opossum

- M1 receptor selectivity ([2]; M1 versus M2, from sphincter and trachea results): highly selective for M1 receptors
- blockade of activity by antagonist ([2]; atropine): blocked by atropine
- agonist type ([2]; inferred from 80% of full agonist activity): partial agonist
- muscarinic receptor subtype effects ([2]; lower esophageal sphincter, anaesthetized opossum, injected into arterial supply of the sphincter): only M1 effects
Structure (SMILES): Cc1ccc(-c2cncn2C)o1 [Compound I, 1-(N-methyl)-5-(5'-methyl-2'-furyl)imidazole, Hydrochloride]
- potency in contracting the trachea muscle [1]: virtually no potency
- dosage giving peak effect [2, 3]: 10^-6 mole/kg
- threshold dosage [2, 3]: 10^-8 mole/kg
